Source: US7691969B2, “Isolated GRP94 ligand binding domain polypeptide and nucleic acid encoding same, crystalline form of same, and screening methods employing same” (Duke University, priority 2001, dated 2010)

What was measured:
GRP94 [1] = molecular target: T1, GRP94 (Sus scrofa, UniProt Q29092); assay: Tryptophan fluorescence (tertiary conformational state); type: biochemical, porcine; conditions: 50 μM NECA, 50 μM geldanamycin, 2.5 mM ATP or 2.5 mM ADP; 1 h 37° C.
T1 construct: GRP94 was purified from porcine pancreas rough microsomes; from tissue; host or cells: porcine pancreas rough microsomes (lumenal contents)
Protocol: Tryptophan Fluorescence. Tryptophan fluorescence measurements were conducted in a FLUOROMAX™ spectrofluorometer (Spex Industries, Inc. of Edison, N.J.) with the slit widths set to 1 nm for both excitation and emission. […] All spectra were corrected by subtraction of buffer or buffer plus ligand samples. GRP94 (50 μg/ml) was incubated in buffer A supplemented with 10 mM Mg(OAc)2 and the following concentrations of ligands for 1 hour at 37° C. […] Samples were then cooled to room temperature, transferred to a quartz cuvette, and the spectra collected.

GRP94 [2] = molecular target: T1, GRP94; assay: GRP94 autophosphorylation assay; type: biochemical, porcine; conditions: 180 μM NECA or radicicol in 3.6% DMSO, 5 μg/ml heparin, 5 mM GTP
Protocol: (§1) Phosphorylation Assays. To assay for GRP94 autophosphorylation, 1 μM GRP94 was incubated with γ-[^32P]ATP (6000 cpm/pmol) (Amersham Pharmacia Biotech of Piscataway, N.J.), diluted with cold ATP to yield a final concentration of 0.15 mM ATP in a buffer containing 10 mM Mg(OAc)2 and 50 mM K-Hepes, pH 7.4. For the casein kinase assay, 1 unit of casein kinase II was incubated as described above, with the addition of 4 μM casein. […] The 25 μl reaction mixtures were incubated at 37° C. for 1 hour and quenched by addition of 10% trichloroacetic acid. Samples were analyzed by 10% SDS-PAGE gels and the phosphorylated species were quantitated using a Fuji MACBAS1000™ phosphorimaging system (Fuji Medical Systems of Stamford, Conn.).

GRP94 [3] = molecular target: T1, GRP94; assay: [3H]-NECA competitive displacement assay; type: binding, porcine; conditions: 10 mM Mg(OAc)2 versus nominal magnesium
Protocol: (§2) Where indicated, binding reactions were performed in either buffer C (10 mM Tris, pH 7.5, 50 mM KCl, 5 mM MgCl2, 2 mM DTT, 0.01% NP-40, 20 mM Na2MoO4) or 50 mM Tris, pH 7.5, 10 mM Mg(OAc)2. […] Vacuum filtration was performed with an Amersham Pharmacia Biotech (Piscataway, N.J.) vacuum filtration manifold.
All binding reactions were performed in triplicate and corrected by subtraction of background values, determined in binding reactions lacking GRP94.

GRP94 [4] = molecular target: T1, GRP94; assay: [3H]-NECA binding assay (vacuum filtration); parameters: species or system porcine
Protocol: as §2
Filters were rapidly washed with 3×4 ml of ice cold 50 mM Tris, pH 7.5, placed in 5 ml of scintillation fluid (SAFETYSOLVE™, RPI of Mt. Prospect, Ill.), vortexed, and counted by liquid scintillation spectrometry. […] All binding reactions were performed in triplicate and corrected by subtraction of background values, determined in binding reactions lacking GRP94.

BiP = assay: [3H]-NECA binding assay (vacuum filtration); parameters: species or system porcine; conditions: 20 nM [3H]-NECA, 60 min on ice
casein kinase II = casein kinase II (Homo sapiens, UniProt P68400); assay: Casein kinase assay; type: biochemical; conditions: 180 μM NECA or radicicol in 3.6% DMSO, 5 μg/ml heparin, 5 mM GTP; 4 μM casein
Protocol: as §1

GRP94 [5] = molecular target: T1, GRP94; assay: ATPase assay (HPLC of ATP/ADP); type: biochemical, porcine
Protocol: ATPase Assay. 100 μl reactions consisting of 1 μM GRP94 monomer, various concentrations of MgATP (pH 7.0), and 50 mM K-Hepes, pH 7.4, were incubated for two hours at 37° C. Samples were then spun through a CENTRICON®-30 (Amicon of Beverly, Mass.) at 10,000 rpm, 4° C. to separate protein from nucleotide. A final concentration of 50 mM (NH4)2HPO4, pH 7.0, and 4 μM AMP, pH 7.0, was added to dilutions of the above samples and centrifuged at 15,200 rpm for 5 minutes at 4° C. 100 μL of supernatant was then fractionated on a […]™ SAX column (Alltech of Deerfield, Ill.), using a Series 1050 Hewlett Packard HPLC system. Elution of nucleotides was performed by step gradient elution using a mobile phase of 150 mM (NH4)2HPO4, pH 5.2, at 1.2 ml/min for the first ten minutes, followed by 300 mM (NH4)2HPO4, pH 5.2, at a flow rate of 2 ml/min for the remainder of the elution. In this protocol, ADP and ATP were well resolved, with ADP eluting at 7 minutes and ATP at 12 minutes. Peak height values were used in calculations of percent hydrolysis and ADP formation. Spontaneous hydrolysis was determined for each ATP concentration in paired incubations lacking GRP94. The AMP was used as an internal reference standard to control for equivalent sample loading.

GRP94 [6] = molecular target: T1, GRP94; assay: Isothermal titration calorimetry; type: binding, porcine
Protocol: Isothermal Titration Calorimetry. Isothermal calorimetry experiments were performed at 25° C. using a MSC calorimeter (MicroCal Inc. of Northampton, Mass.). […] The reaction chamber (1.3 mL) contained 5 μM GRP94. Necessary corrections were made by subtracting the heats of dilution resulting from buffer addition to protein solution and ligand solution into buffer.

T1 sequence (Q29092 22-804): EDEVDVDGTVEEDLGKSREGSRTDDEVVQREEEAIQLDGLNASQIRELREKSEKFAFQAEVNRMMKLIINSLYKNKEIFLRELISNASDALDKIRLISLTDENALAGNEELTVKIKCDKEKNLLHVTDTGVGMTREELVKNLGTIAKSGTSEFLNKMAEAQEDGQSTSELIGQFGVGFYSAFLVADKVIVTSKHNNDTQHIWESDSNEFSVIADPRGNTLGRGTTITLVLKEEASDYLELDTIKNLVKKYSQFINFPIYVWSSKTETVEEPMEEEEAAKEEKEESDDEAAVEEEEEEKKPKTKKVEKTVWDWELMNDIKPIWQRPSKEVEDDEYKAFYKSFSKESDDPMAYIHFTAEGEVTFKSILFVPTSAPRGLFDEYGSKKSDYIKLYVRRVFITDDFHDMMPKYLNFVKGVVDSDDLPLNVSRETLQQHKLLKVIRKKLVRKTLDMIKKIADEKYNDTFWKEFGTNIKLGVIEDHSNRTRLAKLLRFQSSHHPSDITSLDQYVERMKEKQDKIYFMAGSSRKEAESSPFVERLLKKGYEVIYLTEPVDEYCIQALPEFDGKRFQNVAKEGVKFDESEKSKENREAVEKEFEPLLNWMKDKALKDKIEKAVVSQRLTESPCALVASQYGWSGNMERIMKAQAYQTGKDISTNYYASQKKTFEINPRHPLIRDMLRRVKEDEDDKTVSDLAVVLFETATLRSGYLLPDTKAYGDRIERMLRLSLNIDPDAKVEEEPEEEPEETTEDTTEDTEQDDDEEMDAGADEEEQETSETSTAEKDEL
Sequence of casein kinase II (P68400 whole entry): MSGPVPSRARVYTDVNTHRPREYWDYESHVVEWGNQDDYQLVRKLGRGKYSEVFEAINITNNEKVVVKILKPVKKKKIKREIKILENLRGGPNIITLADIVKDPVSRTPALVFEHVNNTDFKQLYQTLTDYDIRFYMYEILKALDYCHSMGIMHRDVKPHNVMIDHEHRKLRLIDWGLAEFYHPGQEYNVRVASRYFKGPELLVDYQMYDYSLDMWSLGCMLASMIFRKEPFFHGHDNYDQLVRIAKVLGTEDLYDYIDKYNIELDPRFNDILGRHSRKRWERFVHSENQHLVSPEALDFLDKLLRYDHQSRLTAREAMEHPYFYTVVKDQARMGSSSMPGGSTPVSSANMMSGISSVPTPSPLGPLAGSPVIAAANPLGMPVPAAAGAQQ
Sequence of casein kinase II (P67870 whole entry partner): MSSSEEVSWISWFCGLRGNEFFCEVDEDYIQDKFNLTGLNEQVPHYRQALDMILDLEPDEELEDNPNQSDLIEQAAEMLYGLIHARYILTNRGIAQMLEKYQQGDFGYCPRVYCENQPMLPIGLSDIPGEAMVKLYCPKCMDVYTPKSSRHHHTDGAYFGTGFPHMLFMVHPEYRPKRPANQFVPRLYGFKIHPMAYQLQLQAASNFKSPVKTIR

CCNC(=O)[C@H]1O[C@@H](n2cnc3c(N)ncnc32)[C@H](O)[C@@H]1O [NECA, N-ethylcarboxamidoadenosine]
change of GRP94 tryptophan fluorescence (GRP94 [1]): increased the tryptophan fluorescence | inhibition of GRP94 autophosphorylation (GRP94-derived kinase) activity (GRP94 [2]): neither NECA nor radicicol, both of which bind to the N-terminal nucleotide binding domain of GRP94, significantly inhibit GRP94 derived or casein kinase II activity below the solvent background | effect of excess Mg2+ on binding to GRP94 (GRP94 [3]): without effect on the binding of NECA or adenosine to GRP94 | slope of Hill plot (GRP94 [4]): 1.2 | [3H]-NECA binding activity (GRP94 [4]; 20 nM [3H]-NECA, 60 min on ice): displayed readily detectable [^3H]-NECA binding activity | maximal binding stoichiometry (saturation curve) (GRP94 [4]; FIG. 9B): 1 molecule of NECA per molecule of GRP94 dimer | binding stoichiometry (GRP94 [4]; radioligand filtration): 0.5 mol [^3H]-NECA/mol GRP94 monomer | [3H]-NECA binding activity (BiP): [^3H]-NECA binding was not observed for Hsp90 or BiP | inhibition of casein kinase II activity (casein kinase II): neither NECA nor radicicol, both of which bind to the N-terminal nucleotide binding domain of GRP94, significantly inhibit GRP94 derived or casein kinase II activity below the solvent background | inhibition of GRP94 ATPase activity (GRP94 [5]): sensitive to inhibition by NECA | binding stoichiometry at saturation (summary of ligand binding studies and calorimetry) (GRP94 [6]): 1 mol NECA:mol GRP94 dimer | binding stoichiometry by isothermal titration calorimetry (GRP94 [6]; 5 μM GRP94, 152 μM NECA stock, 25° C.): 1.1 mol NECA/mol GRP94 dimer
